Experimental data: ChEMBL document CHEMBL4842359, “1,3-Diarylpyrazolyl-acylsulfonamides as Potent Anti-tuberculosis Agents Targeting Cell Wall Biosynthesis in Mycobacterium tuberculosis” (J Med Chem, 2021)
In brackets after ≈: the same amount, converted by molar mass.

Columns and labels:
Assay in all cases: microbe, parasite or virus in culture
[1] = test system: Mycobacterium tuberculosis; settings: 336 h
[2] = test system: Mycobacterium tuberculosis; settings: R88
[3] = test system: Mycobacterium tuberculosis; settings: MD55
[4] = test system: Mycobacterium tuberculosis; settings: R3027
[5] = test system: Mycobacterium tuberculosis; settings: R296
[6] = test system: Mycobacterium tuberculosis; settings: MD96

CS(=O)(=O)NC(=O)NCc1cn(-c2ccc(Cl)cc2)nc1-c1ccncc1
MIC [1]: < 0.12 µM

CS(=O)(=O)NC(=O)CCc1cn(-c2ccc(Br)cc2)nc1-c1ccncc1
MIC [2]: 30 µM (≈ 13.5 µg/mL) | MIC [3]: 60 µM (≈ 27 µg/mL) | MIC [4]: 60 µM (≈ 27 µg/mL) | MIC [5]: 60 µM (≈ 27 µg/mL) | MIC [6]: ≤ 30 µM

CS(=O)(=O)NC(=O)NCc1cc(-c2ccc(Br)cc2)oc1-c1ccncc1
MIC [1]: < 0.13 µM

CS(=O)(=O)NC(=O)CCc1cn(-c2ccc(Cl)cc2)nc1-c1ccc(Cl)cc1
MIC [1]: 0.24 µM (≈ 0.105 µg/mL)

CS(=O)(=O)NC(=O)CCc1cn(-c2ccc(Br)cc2)nc1-c1ccc(Cl)cc1
MIC [1]: 0.4 µM (≈ 0.193 µg/mL)

NNC(=O)c1ccncc1 [ISONIAZID]
MIC [1]: 31.2 µM (≈ 4.28 µg/mL)

CO[C@H]1/C=C/O[C@@]2(C)Oc3c(C)c(O)c4c(O)c(c(/C=N/N5CCN(C)CC5)c(O)c4c3C2=O)NC(=O)/C(C)=C\C=C\[C@H](C)[C@H](O)[C@@H](C)[C@@H](O)[C@@H](C)[C@H](OC(C)=O)[C@@H]1C [RIFAMPIN]
MIC [1]: 0.001 µM (≈ 0.000823 µg/mL)
